The values that follow come from paper PMC11191402, “High-Affinity NIR-Fluorescent Inhibitors for Tumor Imaging via Carbonic Anhydrase IX” (Bioconjugate Chemistry, 2024).

The target of the experiment is T1, CAIX expressed in live HeLa cells (Homo sapiens, UniProt Q16790).
T1 construct: an open reading frame for the full-length CAIX protein (1–459 amino acids) without a tag; expressed in transfected cells; host or cells: HeLa cells transfected with pCMV-CAIX (TurboFect), normoxia
The experiment is described as follows: NIR-fluorescent compound dosing on live HeLa cells (direct binding). The source says: To measure NIR-fluorescent compound binding to CAIX expressed in cancer cells, the GZ22-4 compound was applied in different concentrations to live HeLa cells grown under hypoxia and normoxia, as described in the Materials and Methods section, and was previously performed for the fluorescein-conjugated CAIX inhibitor GZ19-32.[16] […] The difference was hidden in the low signal-to-noise ratio.
To increase the amount of CAIX expression, the HeLa cells were transfected with the CAIX-encoding plasmid pCMV-CAIX. There was a dramatic increase in CAIX expression observed both in the dosing curve and fluorescence microscopy results. […] In the case of transfection, we can see both the specific CAIX-dependent signal and relatively weak nonspecific binding of the dye to unknown targets at concentrations above approximately 1 μM (shown as a dashed curve, increasing at the same concentrations as the nontransfected cell dosing curve).
Fluorescence values corresponding to the transfection effect were obtained by subtraction of nontransfected values from transfected fluorescence values, showing the resultant data points as open squares. […] However, the determination of the Kd via dosing curves at such high protein concentrations is not accurate and can only serve as an estimate of affinity.
Both assays were performed as previously described.[16] In brief, to measure fluorescent compound binding to CAIX expressed in live cells, HeLa cells were seeded in 12-well plates and either incubated in hypoxia for 3 days or transfected with the CAIX-coding plasmid pCMV-CAIX next day after seeding. The TurboFect transfection reagent (Thermo Fisher) was used for transfection. […] 150 μL of the suspension from each well was transferred to Thermo Scientific Nunc MicroWell 96-Well Optical-Bottom Plates for fluorescence and absorbance measurements. 759 nm excitation and 800 nm emission wavelengths were used to measure fluorescence on a Synergy HTX, BioTek plate reader. 650 nm wavelength was used for absorbance measurements.

As usually defined, the Kd is the equilibrium constant for the complex coming apart. For the compound `CC1(C)C(/C=C/C2=C(Oc3ccc(CCC(=O)NCCOCCOCCOCCOCCOCCOCCOCCOCCOCCOCCOCCNC(=O)CCS(=O)(=O)c4c(F)c(F)c(S(N)(=O)=O)c(F)c4NC4CCCCCCC4)cc3)C(=C/C=C3\N(CCCCS(=O)(=O)[O-])c4ccccc4C3(C)C)/CCC2)=[N+](CCCCS(=O)(=O)[O-])c2ccccc21.[Na+]` [GZ22-4, Sodium 4-((Z)-2-((E)-2-(2-(4-(43-((2-(Cyclooctylamino)-3,5,6-trifluoro-4-sulfamoylphenyl)sulfonyl)-3,41-dioxo-7,10,13,16,19,22,25,28,31,34,37-undecaoxa-4,40-diazatritetracontyl)phenoxy)-3-((E)-2-(3,3-dimethyl-1-(4-sulfonatobutyl)-3H-indol-1-ium-2-yl)vinyl)cyclohex-2-en-1-ylidene)ethylidene)-3,3-dimethylindolin-1-yl)butane-1-sulfonate], for the setting “HeLa transfected with pCMV-CAIX, normoxia, nontransfected values subtracted, 120 nM CAIX, only an estimate of affinity, read-out: Kd from dosing curve on CAIX-transfected HeLa cells”, the Kd is 1 nM. Besides, the “fluorescence signal in hypoxia vs normoxia” value (nontransfected live HeLa cells, plate reader) is listed as “no difference in the fluorescence signal in hypoxia vs normoxia”. Besides, the “concentration above which nonspecific binding of the dye to unknown targets is seen” value (transfected and nontransfected HeLa cell cultures) is over 1 µM.
